Results taken from ChEMBL document CHEMBL1145897, “Synthesis and biological evaluation of 2,4-diamino-6-(arylaminomethyl)pyrido[2,3-d]pyrimidines as inhibitors of Pneumocystis carinii and Toxoplasma gondii dihydrofolate reductase and as antiopportunistic infection and antitumor agents” (J Med Chem, 2003).

Columns and labels:
Dihydrofolate reductase = target: T1, Dihydrofolate reductase (Rattus norvegicus, UniProt Q920D2)
T1 sequence (Q920D2 whole entry): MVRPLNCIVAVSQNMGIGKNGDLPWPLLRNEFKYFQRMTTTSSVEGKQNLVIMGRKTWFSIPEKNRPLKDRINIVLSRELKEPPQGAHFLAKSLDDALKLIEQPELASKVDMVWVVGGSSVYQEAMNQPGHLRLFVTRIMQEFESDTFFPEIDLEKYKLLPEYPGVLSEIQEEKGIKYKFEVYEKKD
Description: Inhibition of dihydrofolate reductase from rat liver.

HCC 2998 = assay: […] cytotoxic evaluation against colon cancer HCC2998 cell line; format: functional, Homo sapiens
MDA-N = assay: […] cytotoxic evaluation against breast cancer MDA-N cell line; format: functional, Homo sapiens
EKVX = assay: […] cytotoxic evaluation against human lung cancer EKVX cell line; format: functional
SF-295 = assay: […] cytotoxic evaluation against CNS cancer SF-295 cell line; format: functional, Homo sapiens
COLO 205 = assay: […] cytotoxic evaluation against colon cancer COLO 205 cell line; format: functional, Homo sapiens
Toxoplasma gondii [1] = assay: Inhibitory activity against cell growth of Toxoplasma gondii measured by the incorporation of [3H]uracil at […]
MDA-MB-435 = assay: […] cytotoxic evaluation against breast cancer MDA-MB-435 cell line; format: functional, Homo sapiens
MOLT-4 = assay: […] cytotoxic evaluation against human leukemic Molt-4 cell line; format: functional
SK-MEL-5 = assay: […] cytotoxic evaluation against melanoma SK-MEL-5 cell line; format: functional, Homo sapiens
LOX IMVI = assay: […] cytotoxic evaluation against melanoma LOX IMVI cell line; format: functional, Homo sapiens
Pneumocystis carinii [2] = assay: Inhibitory activity against cell growth of pneumocystis carinii measured by direct counting of organisms in the culture supernatant fluid at 10 uM
HCT-116 = assay: In vitro cytotoxic evaluation against colon cancer HCT116 cell line
K562 = assay: […] cytotoxic evaluation against human leukemic K-562 cell line; format: functional
[3] = Ratio of inhibitory activity against dihydrofolate reductase of rat liver to Toxoplasma gondii
[4] = Ratio of inhibitory activity against dihydrofolate reductase of rat liver to pneumocystis carinii
Toxoplasma gondii [5] = assay: Inhibitory activity against cell growth of Toxoplasma gondii measured by the incorporation of [3H]uracil at 10 uM
Pneumocystis carinii [6] = assay: Inhibitory activity against cell growth of pneumocystis carinii measured by direct counting of organisms in the culture supernatant fluid at 50.7 uM
Toxoplasma gondii [7] = assay: Inhibitory activity against cell growth of Toxoplasma gondii measured by the incorporation of [3H]uracil at 7.8 uM
Toxoplasma gondii [8] = assay: Inhibitory activity against cell growth of Toxoplasma gondii measured by the incorporation of [3H]uracil at <=10 uM

COc1cccc(NCc2cnc3nc(N)nc(N)c3c2)c1
IC50 (Dihydrofolate reductase): 0.79 µM

Nc1nc(N)c2cc(CNc3cc(Cl)ccc3Cl)cnc2n1
GI50 (HCC 2998): 3 µM
GI50 (MDA-N): 3 µM
GI50 (EKVX): 6.6 µM
GI50 (SF-295): 4 µM
GI50 (COLO 205): 2.3 µM
inhibition at […] (Toxoplasma gondii [1]): 50%
GI50 (MDA-MB-435): 2.4 µM
GI50 (MOLT-4): 2 µM
GI50 (SK-MEL-5): 2.2 µM
IC50 (Dihydrofolate reductase): 6.9 µM
GI50 (LOX IMVI): 0.71 µM
inhibition at 10 µM (Pneumocystis carinii [2]): 88%
GI50 (HCT-116): 2.1 µM
GI50 (K562): 1.6 µM

Nc1nc(N)c2cc(CNc3cc(Cl)c(Cl)c(Cl)c3)cnc2n1
GI50 (HCC 2998): 0.78 µM
GI50 (MDA-N): 0.5 µM
GI50 (EKVX): 0.85 µM
GI50 (SF-295): 0.74 µM
GI50 (COLO 205): 0.31 µM
GI50 (MDA-MB-435): 0.57 µM
GI50 (MOLT-4): 0.71 µM
GI50 (SK-MEL-5): 0.35 µM
IC50 (Dihydrofolate reductase): 4.6 µM
GI50 (LOX IMVI): 0.031 µM
GI50 (HCT-116): 0.74 µM
GI50 (K562): 0.35 µM

CN(Cc1cnc2nc(N)nc(N)c2c1)c1ccccc1
IC50 (Dihydrofolate reductase): 395 µM

COc1ccc(NCc2cnc3nc(N)nc(N)c3c2)cc1OC
IC50 (Dihydrofolate reductase): 0.56 µM

CN(Cc1cnc2nc(N)nc(N)c2c1)c1ccc(Cl)c(Cl)c1
IC50 (Dihydrofolate reductase): 0.18 µM

COc1cc(NCc2cnc3nc(N)nc(N)c3c2C)cc(OC)c1OC
Ratio [3]: 0.3
Ratio [4]: 0.02

Nc1nc(N)c2cc(CNc3ccc(Cl)c(Cl)c3)cnc2n1
GI50 (HCC 2998): 2.7 µM
GI50 (MDA-N): 0.95 µM
GI50 (EKVX): 2.4 µM
GI50 (SF-295): 3.8 µM
GI50 (COLO 205): 1.7 µM
GI50 (MDA-MB-435): 1.3 µM
GI50 (MOLT-4): 1.1 µM
GI50 (SK-MEL-5): 1.1 µM
IC50 (Dihydrofolate reductase): 0.48 µM
GI50 (LOX IMVI): 0.82 µM
GI50 (HCT-116): 0.62 µM
GI50 (K562): 0.33 µM

COc1cc(NCc2ccc3nc(N)nc(N)c3c2C)cc(OC)c1OC
Ratio [3]: 0.3
Ratio [4]: 0.07

COc1ccc(OC)c(NCc2cnc3nc(N)nc(N)c3c2)c1
inhibition at 10 µM (Toxoplasma gondii [5]): < 50%
IC50 (Dihydrofolate reductase): 5 µM

COc1ccc(OC)c(CN(C)c2cnc3nc(N)nc(N)c3c2)c1
Ratio [3]: 9
Ratio [4]: 0.7

Nc1nc(N)c2cc(CNc3cccc4ccccc34)cnc2n1
inhibition at 50.7 µM (Pneumocystis carinii [6]): 50%
inhibition at 7.8 µM (Toxoplasma gondii [7]): 50%
IC50 (Dihydrofolate reductase): 0.6 µM

CN(Cc1cnc2nc(N)nc(N)c2c1)c1cc(Cl)c(Cl)c(Cl)c1
IC50 (Dihydrofolate reductase): 0.27 µM

Nc1nc(N)c2cc(CNc3ccccc3)cnc2n1
Inhibition (Toxoplasma gondii [8]): 0%

Nc1nc(N)c2cc(CNc3ccc4ccccc4c3)cnc2n1
GI50 (HCC 2998): 1.1 µM
GI50 (MDA-N): 4.4 µM
GI50 (EKVX): 9 µM
GI50 (SF-295): 8.2 µM
GI50 (COLO 205): 2.4 µM
GI50 (MDA-MB-435): 10 µM
GI50 (MOLT-4): 2 µM
GI50 (SK-MEL-5): 3.2 µM
IC50 (Dihydrofolate reductase): 4.9 µM
GI50 (LOX IMVI): 1.6 µM
GI50 (HCT-116): 1.9 µM
GI50 (K562): 0.5 µM
